Data taken from publication PMC6273125, “Antioxidant Activity of 3-[N-(Acylhydrazono)ethyl]-4-hydroxy-coumarins” (Molecules, 2016).
“Also recorded” adds a separate entry of the source.

Legend:
[1] = Reducing activity of the DPPH stable free radical (RA%); details: DPPH 0.05 mM in ethanol; for RA%, 50 μM, 20 min / RA%, 50 μM, 60 min: compound 50 μM; for RA%, 100 µM, 20 min: compound 100 µM; for RA%, 100 μM, 60 min: compound 100 μM
Excerpt: It is well known that the interaction of the synthesized 3-acetyl-4-hydroxycoumarin N-acylhydrazones 2 with the stable free radical DPPH indicates their radical scavenging ability in an iron-free system. […] Considering the antioxidant activity of 3-acetyl-4-hydroxy coumarin (1) it seems to be higher than the hydrazone derivatives 2a–l in both concentrations and in relation with the time and it is correlated with the presence of 3-acetyl and 4-hydroxy groups in the lactone ring and the possibility of tautomers (A–D) formation as shown in Scheme 2. It has been reported that 3-acetyl-4-hydroxycoumarin mainly exists in endocyclic enol form (B) in polar solvents (methanol, ethanol) and it is well known that enols show antioxidant activity e.g., it has been reported that enolic and phenolic hydroxyl groups is beneficial for curcumin to protect erythrocytes against hemin-induced hemolysis and to protect DNA against AAPH-induced oxidation. The lower results of hydrazones 2a–l, are correlated with their stereochemistry which influence their interaction with DPPH.
To an ethanolic solution of DPPH (0.05 mM) in absolute ethanol the new coumarin derivatives dissolved in DMSO were added (final concentration 50 and 100 µM). The mixture was shaken vigorously and allowed to stand for 20 min or 60 min; absorbance at 517 nm was determined spectrophotometrically against the blank and the percentage of reducing activity (RA) was calculated by the formula: RA% = [(A0 − A1)/A0] × 100 where A0 is the absorbance of blank and A1 is the absorbance of the reaction mixture.

[2] = molecular target: T1, soybean lipoxygenase (LOX) (Glycine max, UniProt P08170); assay: In vitro inhibition of soybean lipoxygenase, UV-absorbance-based enzyme assay; type: biochemical; details: for IC50 / LOX IC50: soybean lipoxygenase, sodium linoleate, Tris buffer pH 9
T1 construct: purchased Sigma Chemical, Co. (St. Louis, MO, USA)
T1 sequence (P08170 1-839): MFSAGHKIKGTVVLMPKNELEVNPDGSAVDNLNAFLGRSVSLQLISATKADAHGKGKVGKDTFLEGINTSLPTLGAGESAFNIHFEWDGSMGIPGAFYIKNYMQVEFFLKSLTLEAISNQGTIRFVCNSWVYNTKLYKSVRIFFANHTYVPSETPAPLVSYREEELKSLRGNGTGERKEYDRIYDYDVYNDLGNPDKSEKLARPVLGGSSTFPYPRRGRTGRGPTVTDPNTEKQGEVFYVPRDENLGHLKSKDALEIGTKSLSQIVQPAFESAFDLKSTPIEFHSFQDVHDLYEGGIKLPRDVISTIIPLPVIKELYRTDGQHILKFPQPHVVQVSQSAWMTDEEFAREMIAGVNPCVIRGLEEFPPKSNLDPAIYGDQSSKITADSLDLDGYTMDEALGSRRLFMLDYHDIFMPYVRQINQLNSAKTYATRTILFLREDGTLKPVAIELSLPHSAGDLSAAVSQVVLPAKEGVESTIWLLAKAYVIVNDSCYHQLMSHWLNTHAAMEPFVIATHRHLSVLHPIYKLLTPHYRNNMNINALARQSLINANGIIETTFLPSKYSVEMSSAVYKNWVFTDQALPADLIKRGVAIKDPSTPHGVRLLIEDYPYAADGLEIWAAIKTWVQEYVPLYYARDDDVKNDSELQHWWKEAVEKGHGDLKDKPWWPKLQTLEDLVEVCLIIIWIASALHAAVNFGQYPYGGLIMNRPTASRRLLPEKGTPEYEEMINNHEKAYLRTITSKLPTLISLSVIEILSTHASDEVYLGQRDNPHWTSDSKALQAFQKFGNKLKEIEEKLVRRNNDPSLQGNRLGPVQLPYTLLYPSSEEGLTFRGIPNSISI
Procedure: The tested compounds dissolved in DMSO were incubated at room temperature with sodium linoleate (100 µL) and 200 µL of enzyme solution (1/9 × 10^−4 w/v in saline) in Tris buffer pH 9. The conversion of sodium linoleate to 13-hydroperoxylinoleic acid at 234 nm was recorded and compared with the appropriate standard inhibitor.

[3] = Inhibition of linoleic acid lipid peroxidation induced by AAPH; details: pH 7.4, 37 °C
Excerpt: AAPH induced linoleic acid oxidation is based on the inhibition of lipid oxidation and provides a measure of how efficiently antioxidants protect against lipid oxidation in vitro. Oxidation of exogenous linoleic acid by a thermal free radical producer (AAPH) is followed by UV spectrophotometry in a highly-diluted sample [36, 42].
Production of conjugated diene hydroperoxide by oxidation of linoleic acid in an aqueous dispersion is monitored at 234 nm. 2,2′-Azobis(2-amidinopropane) dihydrochloride (AAPH) is used as a free radical initiator. Ten microliters of the 16 mM linoleic acid sodium salt solution was added to the UV cuvette containing 930 µL of […] phosphate buffer, pH 7.4 prethermostated at 37 °C. The oxidation reaction was initiated at 37 °C under air by the addition of 50 μL of 40 mM AAPH solution. Oxidation was carried out in the presence of aliquots (10 μL) of the tested coumarins. In the assay without antioxidant, lipid peroxidation was measured in the presence of the same level of DMSO. The rate of oxidation at 37 °C was monitored by recording the increase in absorption at 234 nm caused by conjugated diene hydroperoxides.

[4] = parameters: method as in PMID 1322662; details: cited from earlier work

Row | SMILES | IC50 [2] [µM] | melting point [°C] | inhibition at 100 µM [2] [%] | LOX % inhibition ([2]; 100 µM, IC50 not determined) | RA%, 50 μM, 20 min [1] [%] | RA%, 50 μM, 60 min [1] [%] | RA%, 100 µM, 20 min [1] [%] | RA%, 100 μM, 60 min [1] [%] | LP 60 s, 100 μM (% inhibition of LP induced by AAPH) [3] [%] | LOX IC50 [2] | antioxidant activity [4]
1 | Cc1c(C)c2c(c(C)c1O)CCC(C)(C(=O)O)O2 (centres unmarked) [TROLOX, trolox, reference compound] | – | – | – | – | – | – | – | – | 63 ± 0.2 | – | –
2 | CC(=O)NN=C(C)c1c(O)c2ccccc2oc1=O [2a, 3-[N-(Acetylhydrazono)ethyl]-4-hydroxycoumarin] | 62.5 ± 2.3 | 248 to 249 | – | – | 5 ± 0.2 | 7 ± 0.3 | 23 ± 3.0 | 24 ± 2.0 | 100 ± 9.8 | – | –
3 | CC(=NNC(=O)c1ccc(O)cc1)c1c(O)c2ccccc2oc1=O [2f, 3-{N-[(4′-Hydroxybenzoyl)hydrazono]ethyl}-4-hydroxycoumarin] | 70 ± 4.3 | 287 to 288 | – | – | 10 ± 0.5 | 14 ± 1.2 | 24 ± 2.2 | 26 ± 1.2 | 98 ± 2.9 | – | –
4 | CC(=O)c1c(O)c2ccccc2oc1=O [compound 1, 3-Acetyl-4-hydroxycoumarin] | – | – | 44 | low inhibitory activity | 29 ± 0.5 | 31± 0.3 | 36± 1.3 | 36 ± 0.8 | – | – | –
5 | O=c1cc(O)c2ccccc2o1 [4-hydroxy coumarin] | – | – | – | – | – | – | – | – | – | – | not found to present any antioxidant activity
6 | CC(=NNC(=O)c1ccccc1)c1c(O)c2ccccc2oc1=O [2c, 3-[N-(Benzoylhydrazono)ethyl]-4-hydroxycoumarin] | 58 ± 2.7 | – | – | – | 5 ± 0.1 | 7 ± 0.4 | 25 ± 1.2 | 30 ± 2.8 | 98 ± 5.4 | – | –
7 | CC(Cc1ccc(O)c(O)c1)C(C)Cc1ccc(O)c(O)c1 (centres unmarked) [NDGA, nordihydroguairetic acid, reference compound] | – | – | – | – | 84 ± 2.0 | 83 ± 3.3 | 81 ± 5.2 | 83 ± 4.7 | – | – | –
8 | CC(=NNC(=O)c1ccc(Cl)cc1)c1c(O)c2ccccc2oc1=O [2e, 3-{N-[(4′-Chlorobenzoyl)hydrazono]ethyl}-4-hydroxycoumarin] | 55 ± 2.1 | 248 to 248.5 | – | – | 7 ± 0.2 | 10 ± 0.5 | 27 ± 0.9 | 29 ± 0.8 | 94 ± 4.8 | – | –
9 | CC(=NNC(=O)c1ccccc1[N+](=O)[O-])c1c(O)c2ccccc2oc1=O [2l, 3-{N-[(2′-Nitrobenzoyl)hydrazono]ethyl}-4-hydroxycoumarin] | 35 ± 0.2 | 219 | – | – | 6 ± 0.3 | 10 ± 0.2 | 27 ± 2.2 | 29 ± 1.0 | 95 ± 6.2 | – | –

Now from value to compound, other results behind:

Row | IC50 [2] [µM] | melting point [°C] | inhibition at 100 µM [2] [%] | LOX % inhibition ([2]; 100 µM, IC50 not determined) | SMILES | RA%, 50 μM, 20 min [1] [%] | RA%, 50 μM, 60 min [1] [%] | RA%, 100 µM, 20 min [1] [%] | RA%, 100 μM, 60 min [1] [%] | LP 60 s, 100 μM (% inhibition of LP induced by AAPH) [3] [%] | LOX IC50 [2] | antioxidant activity [4]
10 | 46.5 ± 2.3 | 256 to 257 | – | – | CC(=NNC(=O)c1ccc(N)cc1)c1c(O)c2ccccc2oc1=O [2g, 3-{N-[(4′-Aminobenzoyl)hydrazono]ethyl}-4-hydroxycoumarin] | 9 ± 0.3 | 16 ± 0.6 | 27 ± 0.8 | 31 ± 1.4 | 95 ± 7.2 | – | –
11 | – | 251 to 252 | – | – | CC(=NNC(=O)c1ccc(C)cc1)c1c(O)c2ccccc2oc1=O [2d, 3-{N-[(4′-Methylbenzoyl)hydrazono]ethyl}-4-hydroxycoumarin] | 7 ± 0.3 | 10 ± 0.2 | 27 ± 2.2 | 27 ± 1.4 | 100 ± 3.2 | do not seem to present any activity; also recorded: No ^c | –
12 | 43.5 ± 3.2 | 228 to 228.5 | – | – | CC(=NNC(=O)c1cccs1)c1c(O)c2ccccc2oc1=O [2k, 3-{N-[(2′-Thienylcarbonyl)hydrazono]ethyl}-4-hydroxycoumarin] | 7 ± 0.1 | 9 ± 0.2 | 25 ± 2.1 | 30 ± 2.2 | 98 ± 3.9 | – | –
13 | 40 ± 0.5 | 216 to 217 | – | – | CC(=NNC(=O)Cc1ccccc1)c1c(O)c2ccccc2oc1=O [2b, 3-[N-(Phenylacetylhydrazono)ethyl]-4-hydroxycoumarin] | 4 ± 0.2 | 7 ± 0.1 | 25 ± 2.0 | 29 ± 1.1 | 100 ± 5.5 | – | –
14 | 49.5 ± 1.2 | 271 to 272 | – | – | CC(=NNC(=O)c1ccccc1O)c1c(O)c2ccccc2oc1=O [2i, 3-{N-[(2′-Hydroxybenzoyl)hydrazono]ethyl}-4-hydroxycoumarin] | 8 ± 0.5 | 10 ± 0.1 | 27 ± 0.2 | 29 ± 1.7 | 100 ± 8.2 | – | –
15 | – | 274 | – | – | CC(=NNC(=O)c1ccncc1)c1c(O)c2ccccc2oc1=O [2h, 3-[N-(Isonicotinoylhydrazono)ethyl]-4-hydroxycoumarin] | 5 ± 0.1 | 8 ± 0.2 | 27 ± 1.5 | 31 ± 1.6 | 99 ± 3.7 | do not seem to present any activity; also recorded: No ^c | –
16 | 90 ± 5.1 | 254.5 to 255 | – | – | CC(=NNC(=O)c1ccco1)c1c(O)c2ccccc2oc1=O [2j, 3-{N-[(2′-Furoyl)hydrazono]ethyl}-4-hydroxycoumarin] | 4 ± 0.2 | 8 ± 0.3 | 25 ± 1.8 | 27 ± 0.8 | 95 ± 4.1 | – | –
